Results on 28 compounds are retold here after patent publication US10508104B2, “6-hydroxy-5-(phenyl/heteroarylsulfonyl)pyrimidin-4(1H)-one as APJ agonists” (Bristol-Myers Squibb Company, priority 2016, dated 2019).

As a reminder, the EC50 is the concentration giving half of the maximal effect.

human APJ receptor, sequence (P35414 whole entry): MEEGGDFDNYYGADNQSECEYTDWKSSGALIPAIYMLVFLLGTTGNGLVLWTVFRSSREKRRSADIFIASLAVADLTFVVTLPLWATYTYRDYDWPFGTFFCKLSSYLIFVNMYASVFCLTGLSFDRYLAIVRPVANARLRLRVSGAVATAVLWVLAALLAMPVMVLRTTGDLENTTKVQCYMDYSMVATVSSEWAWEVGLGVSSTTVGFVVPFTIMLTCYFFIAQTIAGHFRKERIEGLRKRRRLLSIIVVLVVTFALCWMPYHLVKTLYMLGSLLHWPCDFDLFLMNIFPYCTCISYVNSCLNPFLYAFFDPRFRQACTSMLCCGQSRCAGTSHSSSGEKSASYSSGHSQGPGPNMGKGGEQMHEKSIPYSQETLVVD

The target of the first experiment is human APJ receptor (Homo sapiens (Human), UniProt P35414). Nature of the experiment: Intracellular cAMP accumulation assay (APJ hcAMP, HTRF). It is filed as cell-based. As to conditions: HEK293 cells stably expressing human APJ receptor; inhibition of forskolin-mediated cAMP production; read-out: Human APJ cAMP EC50 Potency range. The method, boiled down:
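HEK293 cells stably expressing human APJ, 5,000 per well, incubated 30 min at rt with compound, […] and 2 μM forskolin. cAMP measured by HTRF against a cAMP standard curve as inhibition of forskolin-driven production. EC50 from variable-slope sigmoidal fit.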
On to `CCCCc1nc(=O)c(S(=O)(=O)c2ccc(-c3ccc(F)cc3C(N)=O)cc2)c(O)n1[C@@H](CC)c1ccc(C#N)c(F)c1` [Example 514, 4′-({2-butyl-1-[(1S)-1-(4-cyano-3-fluorophenyl)propyl]-6-hydroxy-4-oxo-1,4-dihydropyrimidin-5-yl}sulfonyl)-4-fluoro-[1,1′-biphenyl]-2-carboxamide], for which the EC50 fell in the range of 0.01 to 10 nM.
As for `CCCCc1nc(=O)c(S(=O)(=O)c2ccc(-n3cc(Cl)ccc3=O)cc2)c(O)n1-c1c(OC)cccc1OC` [Example 71, 2-Butyl-5-((4-(5-chloro-2-oxopyridin-1 (2H)-yl)phenyl)sulfonyl)-1-(2,6-dimethoxyphenyl)-6-hydroxypyrimidin-4(1H)-one], the EC50 fell in the range of 0.01 to 10 nM.
Consider `CC[C@@H](c1cccc(C#N)c1)n1c(CC2CC2)nc(=O)c(S(=O)(=O)c2ccc(-c3ccncc3C)cc2)c1O` [Example 441, 3-[(1S)-1-[2-(cyclopropylmethyl)-6-hydroxy-5-[4-(3-methylpyridin-4-yl)benzenesulfonyl]-4-oxo-1,4-dihydropyrimidin-1-yl]propyl]benzonitrile], for which the EC50 was 0.01 to 10 nM.
Regarding `CCCCc1nc(=O)c(S(=O)(=O)c2ccc(C(C)(C)C)cc2)c(O)n1-c1c(OC)cccc1OC` [Example 363, 2-butyl-5-(4-tert-butylbenzenesulfonyl)-1-(2,6-dimethoxyphenyl)-6-hydroxy-1,4-dihydropyrimidin-4-one], the EC50 lay in the range of 0.01 to 10 nM.
With `CCCCc1nc(=O)c(S(=O)(=O)c2ccc(-c3cccc(C(=O)NC)c3)cc2)c(O)n1[C@@H](CC)c1cccc(C#N)c1` [Example 523, 4′-({2-butyl-1-[(1S)-1-(3-cyanophenyl)propyl]-6-hydroxy-4-oxo-1,4-dihydropyrimidin-5-yl}sulfonyl)-N-methyl-[1,1′-biphenyl]-3-carboxamide], the EC50 lay within 0.01 to 10 nM.
Consider `C/C=C(/c1cccc(C#N)c1)n1c(CCCC)nc(=O)c(S(=O)(=O)c2ccc(-c3ccnc(F)c3C)cc2)c1O` [Example 483, 3-[(1Z)-1-{2-butyl-5-[4-(2-fluoro-3-methylpyridin-4-yl)benzenesulfonyl]-6-hydroxy-4-oxo-1,4-dihydropyrimidin-1-yl}prop-1-en-1-yl]benzonitrile], for which the EC50 lay within 0.01 to 10 nM.
On the same count and under the same terms, to `CCCCc1nc(=O)c(S(=O)(=O)c2ccc(Br)cc2)c(O)n1-c1c(OC)cccc1OC` [Example 1, 5-((4-Bromophenyl)sulfonyl)-2-butyl-1-(2,6-dimethoxyphenyl)-6-hydroxypyrimidin-4(1H)-one] belongs 0.01 to 10 nM; to `CCCCc1nc(=O)c(S(=O)(=O)c2ccc(-c3ccncc3C)cc2)c(O)n1[C@@H](CC)c1ccc(F)cc1` [Example 423, 2-butyl-1-[(1S)-1-(4-fluorophenyl)propyl]-6-hydroxy-5-[4-(3-methylpyridin-4-yl)benzenesulfonyl]-1,4-dihydropyrimidin-4-one], 0.01 to 10 nM.
`Cc1cnccc1-c1ccc(S(=O)(=O)c2c(O)n([C@H](c3cccc(C#N)c3)C3CC3)c(CC3CC3)nc2=O)cc1` [Example 496, 3-[(S)-cyclopropyl[2-(cyclopropylmethyl)-6-hydroxy-5-[4-(3-methylpyridin-4-yl)benzenesulfonyl]-4-oxo-1,4-dihydropyrimidin-1-yl]methyl]benzonitrile]: the EC50 lay in the range of 0.01 to 10 nM.
In the case of `CCCCc1nc(=O)c(S(=O)(=O)c2ccc(-c3cccc(C(=O)NC4CC4)c3F)cc2)c(O)n1[C@@H](CC)c1cccc(C#N)c1` [Example 534, 4′-({2-butyl-1-[(1S)-1-(3-cyanophenyl)propyl]-6-hydroxy-4-oxo-1,4-dihydropyrimidin-5-yl}sulfonyl)-N-cyclopropyl-2-fluoro-[1,1′-biphenyl]-3-carboxamide], the EC50 was 0.01 to 10 nM.
Take `CCCCc1nc(=O)c(S(=O)(=O)c2ccc(-c3ccncc3C)cc2)c(O)n1[C@@H]1CCc2ccc(C#N)cc21` [Example 544, (3R)-3-{2-butyl-6-hydroxy-5-[4-(3-methylpyridin-4-yl)benzenesulfonyl]-4-oxo-1,4-dihydropyrimidin-1-yl}-2,3-dihydro-1H-indene-5-carbonitrile]: the EC50 was in the range of 10 to 100 nM.
Regarding `CCCCc1nc(=O)c(S(=O)(=O)c2ccc(C(C)(C)C)cc2)c(O)n1-c1c(CC)cccc1CC` [Example 362, 2-butyl-5-(4-tert-butylbenzenesulfonyl)-1-(2,6-diethylphenyl)-6-hydroxy-1,4-dihydropyrimidin-4-one], the EC50 lay in the range of 0.01 to 10 nM.
Turning to `COc1cccc(OC)c1-n1c(-c2ccc(F)cc2)nc(=O)c(S(=O)(=O)c2ccc(-n3cc(Cl)ccc3=O)cc2)c1O` [Example 275, 5-((4-(5-Chloro-2-oxopyridin-1 (2H)-yl)phenyl)sulfonyl)-1-(2,6-dimethoxyphenyl)-2-(4-fluorophenyl)-6-hydroxypyrimidin-4(1H)-one], the EC50 is 0.01 to 10 nM.

The same experiment, now with this note: human APJ, cAMP accumulation; read-out: Human APJ cAMP EC50 Potency range.
Turning to `COC[C@@H](c1ccccc1)n1c(C2CCCO2)nc(=O)c(S(=O)(=O)c2ccc(-c3ccc(F)nc3C)cc2)c1O` (single isomer, unassigned) [Example 356], the EC50 lay within 0.01 to 10 nM.
The same measure, in the same setting: to `CCOCc1nc(=O)c(S(=O)(=O)c2ccc(-c3cncc(F)c3)cc2)c(O)n1[C@@H](CC)c1ccccc1` [Example 334, 2-(ethoxymethyl)-5-[4-(5-fluoropyridin-3-yl)benzenesulfonyl]-6-hydroxy-1-[(1S)-1-phenylpropyl]-1,4-dihydropyrimidin-4-one] belongs 0.01 to 10 nM; to `CCOCc1nc(=O)c(S(=O)(=O)c2ccc(-c3ccnc(F)c3C)c(F)c2)c(O)n1[C@@H](COC)c1cccc(C#N)c1` [Example 343, 3-[(1R)-1-[2-(ethoxymethyl)-5-[3-fluoro-4-(2-fluoro-3-methylpyridin-4-yl)benzenesulfonyl]-6-hydroxy-4-oxo-1,4-dihydropyrimidin-1-yl]-2-methoxyethyl] benzonitrile], 0.01 to 10 nM.
In the case of `CCCCc1nc(=O)c(S(=O)(=O)c2ccc(-c3ccc(F)nc3C)cc2)c(O)n1[C@@H](CC)c1cccc(C#N)c1` [Example 226, 3-[(1S)-1-{2-butyl-5-[4-(6-fluoro-2-methylpyridin-3-yl)benzenesulfonyl]-6-hydroxy-4-oxo-1,4-dihydropyrimidin-1-yl}propyl]benzonitrile], the EC50 fell in the range of 0.01 to 10 nM.
As to `CCCCc1nc(=O)c(S(=O)(=O)c2ccc(-n3cc(Cl)ccc3=O)cc2)c(O)n1[C@@H](COC)c1ccccc1` [Example 288, 2-butyl-5-[4-(5-chloro-2-oxo-1,2-dihydropyridin-1-yl)benzenesulfonyl]-6-hydroxy-1-[(1R)-2-methoxy-1-phenylethyl]-1,4-dihydropyrimidin-4-one], the EC50 lay in the range of 0.01 to 10 nM.
Still for that read-out and setting: then `CCOCc1nc(=O)c(S(=O)(=O)c2ccc(-c3ccnc(F)c3C)c(F)c2)c(O)n1C(COC)c1cccc(F)c1` (stereo not shown) [Example 346, 2-(ethoxymethyl)-5-[3-fluoro-4-(2-fluoro-3-methylpyridin-4-yl)benzenesulfonyl]-1-[1-(3-fluorophenyl)-2-methoxyethyl]-6-hydroxy-1,4-dihydropyrimidin-4-one], with 0.01 to 10 nM.

Still in this experiment, the particulars now being: human APJ, intracellular cAMP accumulation; read-out: Human APJ cAMP EC50 Potency range.
For `CCCCc1nc(=O)c(S(=O)(=O)c2ccc(-c3ccncc3C)cc2)c(O)n1[C@H](C)c1ccccc1` [Example 139, 2-butyl-6-hydroxy-5-[4-(3-methylpyridin-4-yl)benzenesulfonyl]-1-[(1R)-1-phenylethyl]-1,4-dihydropyrimidin-4-one], the EC50 lay in the range of 0.01 to 10 nM.
For the compound `CCCCc1nc(=O)c(S(=O)(=O)c2ccc(-c3cccnc3C)cc2)c(O)n1[C@@H](CC)c1cccc(Cl)c1` [Example 193, 2-butyl-1-[(1S)-1-(3-chlorophenyl)propyl]-6-hydroxy-5-[4-(2-methylpyridin-3-yl)benzenesulfonyl]-1,4-dihydropyrimidin-4-one], the concentration giving a half-maximal response (EC50) is 0.01 to 10 nM.
Turning to `CCCCc1nc(=O)c(S(=O)(=O)c2ccc(-c3cccs3)cc2)c(O)n1-c1c(OC)cccc1OC` [Example 81, 2-butyl-1-(2,6-dimethoxyphenyl)-6-hydroxy-5-[4-(thiophen-2-yl)benzenesulfonyl]-1,4-dihydropyrimidin-4-one], the EC50 lay in the range of 0.01 to 10 nM.
The same measure, in the same setting: then `CCCCc1nc(=O)c(S(=O)(=O)c2ccc(-n3cc(Cl)ccc3=O)cc2)c(O)n1-c1c(CC)cccc1CC` [Example 77, 2-butyl-5-[4-(5-chloro-2-oxo-1,2-dihydropyridin-1-yl)benzenesulfonyl]-1-(2,6-diethylphenyl)-6-hydroxy-1,4-dihydropyrimidin-4-one], with 0.01 to 10 nM.
Regarding `CCCCc1nc(=O)c(S(=O)(=O)c2ccc(Br)cc2)c(O)n1[C@H](C)c1ccccc1` [Example 127, 5-(4-bromobenzenesulfonyl)-2-butyl-6-hydroxy-1-[(1R)-1-phenylethyl]-1,4-dihydropyrimidin-4-one], the EC50 is 10 to 100 nM.
Consider “5-(4- bromobenzenesulfonyl)- 2-butyl-3-[(1S)-1-(3- chlorophenyl)propyl]-6- hydroxy-3,4- dihydropyrimidin-4-one [Example 188]”, for which the EC50 is 10 to 100 nM.
On the same count and under the same terms, to `CCCCc1nc(=O)c(S(=O)(=O)c2ccc(-c3ccc(F)nc3)cc2)c(O)n1[C@@H](CC)c1cccc(Cl)c1` [Example 200, 2-butyl-1-[(1S)-1-(3-chlorophenyl)propyl]-5-[4-(6-fluoropyridin-3-yl)benzenesulfonyl]-6-hydroxy-1,4-dihydropyrimidin-4-one] belongs 0.01 to 10 nM.
On to `CCCCc1nc(=O)c(S(=O)(=O)c2ccc(-c3ccc(F)nc3C)cc2)c(O)n1[C@@H](CC)c1cccc(Cl)c1` [Example 198, 2-butyl-1-[(1S)-1-(3-chlorophenyl)propyl]-5-[4-(6-fluoro-2-methylpyridin-3-yl)benzenesulfonyl]-6-hydroxy-1,4-dihydropyrimidin-4-one], for which the EC50 lay within 0.01 to 10 nM.
As for `CCCCc1nc(=O)c(S(=O)(=O)c2ccc(-c3ccc(F)nc3)cc2)c(O)n1[C@@H](C)c1cccc(C#N)c1` [Example 141, 3-[(1S)-1-{2-butyl-5-[4-(6-fluoropyridin-3-yl)benzenesulfonyl]-6-hydroxy-4-oxo-1,4-dihydropyrimidin-1-yl}ethyl]benzonitrile], the EC50 fell in the range of 0.01 to 10 nM.
